Results from PMC3919268, “Three-dimensional structure of a Streptomyces sviceus GNAT acetyltransferase with similarity to the C-terminal domain of the human GH84 O-GlcNAcase” (Acta Crystallographica Section D: Biological Crystallography, 2013).

Target: T1, SsAT (acetyltransferase, accession No. ZP_05014886) (Streptomyces sviceus, UniProt B5HKU0)
T1 construct: gene SSEG_00025; recombinant N-terminally His-tagged SsAT, freshly purified
Experiment: ITC, pH […]°C, one-site model, n close to […]
Type: binding

T1 sequence (B5HKU0 entry or part of it): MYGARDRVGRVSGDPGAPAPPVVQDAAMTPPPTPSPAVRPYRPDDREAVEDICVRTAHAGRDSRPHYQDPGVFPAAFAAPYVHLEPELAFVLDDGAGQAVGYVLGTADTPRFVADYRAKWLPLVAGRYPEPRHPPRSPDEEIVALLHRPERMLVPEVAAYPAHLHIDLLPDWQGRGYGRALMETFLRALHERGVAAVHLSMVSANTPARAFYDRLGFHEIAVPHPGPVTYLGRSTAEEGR

CC(=O)SCCNC(=O)CCNC(=O)[C@H](O)C(C)(C)COP(=O)(O)OP(=O)(O)OC[C@H]1O[C@@H](n2cnc3c(N)ncnc32)[C@H](O)[C@@H]1OP(=O)(O)O [acetyl coenzyme A]
Kd: 20 µM
